In PubChem BioAssay (NCI):
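Each compound was tested at five concentrations against cells in 96-well plates for 48 hours. Here, GI50 denotes the concentration required for 50% inhibition of growth. At the TGI there is no net growth.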

How the values were obtained:
Experiment in all cases: inhibition of tumour cell growth, NCI panel, 48 h
OVCAR-3 ovarian = test system: OVCAR-3 ovarian
IGROV1 ovarian = test system: IGROV1 ovarian
HS 578T breast = test system: HS 578T breast
SR leukemia = test system: SR leukemia
KM12 colon = test system: KM12 colon
786-0 renal = test system: 786-0 renal
MDA-MB-435 = test system: MDA-MB-435
SF-295 CNS = test system: SF-295 CNS
OVCAR-5 ovarian = test system: OVCAR-5 ovarian
NCI-H522 lung = test system: NCI-H522 lung

Structure (SMILES) | TGI (OVCAR-3 ovarian) | TGI (IGROV1 ovarian) | TGI (HS 578T breast) | TGI (SR leukemia) | TGI (KM12 colon) | TGI (786-0 renal) | TGI (MDA-MB-435) | TGI (SF-295 CNS) | TGI (OVCAR-5 ovarian) | TGI (NCI-H522 lung) | GI50 (OVCAR-3 ovarian) | GI50 (IGROV1 ovarian) | GI50 (HS 578T breast) | GI50 (KM12 colon) | GI50 (786-0 renal) | GI50 (MDA-MB-435) | GI50 (SF-295 CNS) | GI50 (OVCAR-5 ovarian) | GI50 (NCI-H522 lung) | GI50 (SR leukemia)
CSc1ccc2c(c1)N(CCCN(C)C)c1ccccc1S2 | 27.2 µM | 28 µM | 28.7 µM | 19.2 µM | 24.9 µM | 28.5 µM | 17 µM | 26.8 µM | 30.9 µM | 26.6 µM |  |  |  |  |  |  |  |  |  | 
C#CCN(CCCOc1ccc(Cl)cc1Cl)CCCSC(=O)CCCCCN1/C(=C\C=C2/CCCC(/C=C/C3=[N+](CCCCCC(=O)[O-])c4ccccc4C3(C)C)=C2Cl)C(C)(C)c2ccccc21 | 3.31 µM | 3.34 µM | 6.4 µM |  | 4.46 µM | 3.5 µM | 3.15 µM | 4.06 µM | 3.92 µM | 3.34 µM | 1.45 µM | 1.42 µM | 1.47 µM | 1.56 µM | 1.78 µM | 1.46 µM | 1.91 µM | 1.78 µM | 1.16 µM | 
CN1CCC(C(=O)Nc2n[nH]c3nnc(-c4ccccc4)cc23)CC1 | > 25 µM | > 25 µM | > 25 µM | > 25 µM | > 25 µM | > 25 µM | > 25 µM | > 25 µM | > 25 µM | > 25 µM | 10.1 µM | > 25 µM | 16.5 µM | 19.4 µM | > 25 µM | > 25 µM | 17.5 µM | > 25 µM | > 25 µM | > 25 µM
Cc1nc2sc(C(=O)Nc3cccc(Cl)c3)c(N)c2cc1C(O)c1ccccc1 (stereo not drawn) | 21.6 µM | 17 µM | 4.89 µM | > 100 µM | 24.5 µM | 20.7 µM | 0.465 µM | 13.5 µM | 18.1 µM | 18.3 µM | 0.587 µM | 2.27 µM | 0.351 µM | 0.577 µM | 2.47 µM | 0.203 µM | 1.21 µM | 2.41 µM | 1.15 µM | 0.414 µM
O=C([CH-]C(=O)c1ccccc1)c1ccccc1.[CH2-]C.[CH2-]C.[Tl+3] | > 100 µM | > 100 µM | > 100 µM | 50.1 µM | > 100 µM | > 100 µM | > 100 µM | > 100 µM | > 100 µM | > 85.2 µM | 28 µM | 24.4 µM | 31.7 µM | 49.6 µM | 19.2 µM | 24.8 µM | 15.6 µM | 40.5 µM | 21.5 µM | 6.35 µM
Nc1nc2c([nH]1)c1[nH]c3ccccc3c1c1[nH]c3ccccc3c21 | 25.7 µM | 22.6 µM | 53.9 µM |  | 21.2 µM | 22.6 µM | 22 µM | 27.5 µM | 30 µM | 34.1 µM | 12.6 µM | 10.2 µM | 20.4 µM | 6.91 µM | 9.44 µM | 9.73 µM | 13.9 µM | 16.1 µM | 17.2 µM | 
COC(=O)c1sc(=S)c2sc(C(=O)OC)c(C(=O)OC)c2c1C(=O)OC | > 100 µM | > 100 µM | > 100 µM | 48.2 µM | > 100 µM | > 100 µM | > 100 µM | > 100 µM | > 100 µM | 91.5 µM | 35.5 µM | 37.1 µM | 46.5 µM | 36.4 µM | 89.4 µM | 51.3 µM | 39.3 µM | 92.2 µM | 31 µM | 23.3 µM
CC(=O)OCCc1cc2ccccc2oc1=O | > 100 µM | > 100 µM | > 100 µM | > 100 µM | > 100 µM | > 100 µM | > 100 µM | > 100 µM | > 100 µM | > 100 µM |  |  |  |  |  |  |  |  |  | 
CC(C)(C)OC(=O)CC(S(=O)(=O)c1ccccc1)S(=O)(=O)c1ccccc1 | 3.29 µM | 38.5 µM | 81.4 µM | 12.1 µM |  | 27.4 µM | 26.7 µM | > 100 µM | 32.7 µM | 3.53 µM | 1.88 µM | 18.5 µM | 22 µM |  | 13.9 µM | 13.8 µM | > 100 µM | 17.4 µM | 1.65 µM | 3.1 µM
COc1ccc(N=C2C(=O)Nc3ccc(Br)cc32)cc1 | 62.4 µM |  | > 100 µM | 28.6 µM | 29.4 µM | 43.6 µM | 27.4 µM | > 100 µM | 58 µM | 24.9 µM |  |  |  |  |  |  |  |  |  | 
Clc1cc(Cl)cc(Nc2ccc3c(OCCCN4CCOCC4)cccc3n2)c1 | 9.63 µM | 17.6 µM | 8.14 µM |  | 4.13 µM | 3.22 µM | 3.71 µM | 4.06 µM | 4.37 µM | 3.57 µM | 2.92 µM | 3.9 µM | 2.51 µM | 2 µM | 1.69 µM | 1.8 µM | 1.92 µM | 1.83 µM | 1.82 µM | 
N#CC(C#N)=C/C=C/c1ccccc1[N+](=O)[O-] | > 10 µM | > 10 µM | > 10 µM | > 10 µM | > 10 µM | > 10 µM |  | > 10 µM |  | > 10 µM |  |  |  |  |  |  |  |  |  | 
Nc1c([N+](=O)[O-])ncn1C1OC(CO)C(O)C1O (stereo not drawn) | > 100 µM | > 100 µM | > 100 µM |  | > 100 µM | > 100 µM | > 100 µM | > 100 µM | > 100 µM | > 100 µM | > 100 µM | > 100 µM | > 100 µM | > 100 µM | > 100 µM | > 100 µM | > 100 µM | > 100 µM | > 100 µM | 
CN(C)CC(=O)N1CCc2c([nH]c3ccccc23)C1c1cccnc1 (stereo not drawn) | > 100 µM | > 100 µM | > 100 µM | > 100 µM | > 100 µM | > 100 µM | > 100 µM |  | > 100 µM | > 100 µM |  |  | 94.1 µM |  |  | > 100 µM |  |  |  | 
